According to patent US20240415918A1, “Polypeptide and its use as a CCK receptor agonist/antagonist” (Centre for Regenerative Medicine & Health, Hong Kong …, priority 2021, published 2024):
Where a SMILES comes first, the peptide text is derived from it. [ ]: non-standard residue; d: D form. The star is where a group is joined. dTrp(5-OH) = N[C@H](Cc1c[nH]c2ccc(O)cc12)C(=O)O; dTrp(2-Me) = Cc1[nH]c2ccccc2c1C[C@@H](N)C(=O)O; sY = N[C@@H](Cc1ccc(OS(=O)(=O)O)cc1)C(=O)O; NMeW = CN[C@@H](Cc1c[nH]c2ccccc12)C(=O)O; Phe(3-Br) = N[C@@H](Cc1cccc(Br)c1)C(=O)O; Fmoc = O=C(OCC1c2ccccc2-c2ccccc21)*; dAoc(2) = CCCCCC[C@@H](N)C(=O)O; Aad = N[C@@H](CCCC(=O)O)C(=O)O; NMeNle = CCCC[C@H](NC)C(=O)O; Nle = CCCC[C@H](N)C(=O)O

Experiments:
[1] = molecular target: T1, CCK-B receptors (CHO-CCK) (Homo sapiens, UniProt P32239); test: Calcium flux (Fluo-8) antagonist test on CHO-CCK model cells in presence of CCK8; assay type: cell-based
T1 construct: expressed in transfected cells; host or cells: CHO (CHO-CCK model cells)
T1 sequence (P32239 1-447): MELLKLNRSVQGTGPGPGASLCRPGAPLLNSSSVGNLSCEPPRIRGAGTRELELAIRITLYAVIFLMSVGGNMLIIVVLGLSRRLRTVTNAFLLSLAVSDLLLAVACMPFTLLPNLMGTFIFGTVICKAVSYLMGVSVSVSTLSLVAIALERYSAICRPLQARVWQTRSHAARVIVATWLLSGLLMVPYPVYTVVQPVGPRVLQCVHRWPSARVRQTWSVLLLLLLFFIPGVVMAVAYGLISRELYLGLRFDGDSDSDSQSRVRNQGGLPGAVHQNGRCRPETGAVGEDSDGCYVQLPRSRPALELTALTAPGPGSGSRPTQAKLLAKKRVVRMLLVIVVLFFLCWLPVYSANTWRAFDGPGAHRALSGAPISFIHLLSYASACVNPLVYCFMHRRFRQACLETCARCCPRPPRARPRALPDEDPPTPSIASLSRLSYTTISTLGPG
Experimental: The compound was formulated to a 10 mM mother liquor with DMSO, and then diluted into a series of 9 concentrations with a 3-fold gradient to form a 1000× stock solution. […] Prepare 1×Fluo-8 analysis buffer: mix 9 mL of HHBS, 1 mL of 10× Pluronic F127 Plus and 20 μL of Fluo-8 thoroughly for later use. • 3. Add Fluo-8 dye working solution to the cell plate, 100 μL/well. First incubate in a 37° C. incubator for 30 min, and then take it out and incubate at room temperature in the dark for 30 min. • 4. In the process of incubating cells, the compounds to be detected were prepared with HHBS. • 5. […] The agonism/antagonism EC50 of the compound can be obtained by plotting the fitting curve with the agonism/antagonism percentage as Y-axis and the concentration of the compound as X-axis.

[2] = molecular target: T1, CCK-B receptors (CHO-CCK); test: Calcium flux (Fluo-8) agonist test on CHO-CCK model cells; assay type: cell-based; conditions: for EC50: CHO-CCK cells; for Agonistic Activity (%) at 10 μM: compound at 10 μM, percentage of signal of 20 nM CCK8 alone
Procedure, shortened: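 Agonist-mode Fluo-8 calcium flux read on CHO-CCK cells after dye loading 30 min at 37 °C plus 30 min at room temperature.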

[3] = Fluo-8 calcium flux, 100% control = 20 nM CCK8
[4] = compound together with 10 nM CCK8
[5] = in presence of 10 nM CCK8, bound in μM
[6] = compound alone, 100% = 20 nM CCK8

Compound CSCC[C@H](NC(=O)[C@H](Cc1ccccc1)NC(C)=O)C(=O)N[C@@H](CC(=O)O)C(=O)N[C@@H](Cc1cccc(Br)c1)C(N)=O [HT-223, Ac-Phe-Met-Asp-Phe(3-Br)-NH2] (Ac-FMD[Phe(3-Br)]-NH2) has an EC50 ([1]; in presence of 10 nM CCK8) of 1.88 µM and an EC50 [2, 3] of 0.225 µM.
Work on CCCC[C@H](NC(=O)[C@H](Cc1c[nH]c2ccccc12)NC(C)=O)C(=O)N[C@@H](CC(=O)O)C(=O)N[C@@H](Cc1cn(C)c2ccccc12)C(N)=O [HT-228, Ac-D-Trp-Nle-Asp-(1-Me-Trp)-NH2] yielded an EC50 ([1]; in presence of 10 nM CCK8) of 3.07 µM and an EC50 [2, 3] of 0.262 µM.
In the case of CCCC[C@@H](C(=O)N[C@@H](CC(=O)O)C(=O)N[C@@H](Cc1cccc(Br)c1)C(N)=O)N(C)C(=O)[C@H](Cc1c[nH]c2ccccc12)N(C)C(=O)OCC1c2ccccc2-c2ccccc21 [HT-200, Fmoc-(N-Me-Trp)-(N-Me-Nle)-Asp-Phe(3-Br)-NH2] (Fmoc-[NMeW][NMeNle]D[Phe(3-Br)]-NH2), the EC50 ([1]; in presence of 10 nM CCK8) is reported as 1.77 µM and the EC50 [2, 3] is reported as 0.616 µM.
In the case of C[S+]([O-])CC[C@H](NC(=O)[C@H](N)Cc1c[nH]c2ccccc12)C(=O)N[C@@H](CC(=O)O)C(=O)N[C@@H](Cc1cccc(F)c1)C(N)=O (stereo partly drawn) [HT-44, D-Trp-Met(O)-Asp-Phe(3-F)-NH2], the EC50 ([1]; compound together with 10 nM CCK8, bound in μM) is reported as greater than 10 µM and the “Agonistic Activity (%) at 10 μM” value [2] is reported as 34.63%.
With C[S+]([O-])CC[C@H](NC(=O)[C@H](N)Cc1c[nH]c2ccccc12)C(=O)N[C@@H](CC(=O)O)C(=O)N[C@@H](Cc1ccc(F)cc1)C(N)=O (stereo partly drawn) [HT-53, D-Trp-Met(O)-Asp-Phe(4-F)-NH2] the EC50 [1, 4] was 8.88 µM and the “Agonistic Activity (%) at 10 μM” value [2] was 30.00%.
CCCC[C@H](NC(=O)[C@@H](Cc1c(C)[nH]c2ccccc12)NC(C)=O)C(=O)N[C@@H](CCCC(=O)O)C(=O)N[C@@H](Cc1cccc(Br)c1)C(N)=O [HT-262, Ac-(2-Me-Trp)-Nle-Aa-Phe(3 Br)-NH2] (Ac-[dTrp(2-Me)][Nle][Aad][Phe(3-Br)]-NH2) showed an EC50 [1, 5] greater than 10 µM and an EC50 [2, 3] of 1.18 µM.
Compound CCCCCC[C@@H](NC(C)=O)C(=O)N[C@@H](CCCC)C(=O)N[C@@H](CCC(=O)O)C(=O)N[C@@H](Cc1cccc(Br)c1)C(N)=O [HT-263, Ac-Oa-Nle-Glu-Phe(3-Br)-NH2] (Ac-[dAoc(2)][Nle]E[Phe(3-Br)]-NH2) has an EC50 [1, 5] greater than 10 µM and an EC50 [2, 3] of 64.5 µM.
CS(=O)(=O)CC[C@H](NC(=O)[C@H](N)Cc1c[nH]c2ccccc12)C(=O)N[C@@H](CC(=O)O)C(=O)N[C@@H](Cc1cccc(Br)c1)C(N)=O [HT-63, D-Trp-Met(O2)-Asp-Phe(3-Br)-NH2] was tested, and the EC50 [1, 4] was 7.5 µM, the EC50 [2, 6] was 6.05 µM and the “Agonistic Activity (%) at 10 μM” value [2] was 48.46%.
For CS(=O)(=O)CC[C@H](NC(=O)[C@H](N)Cc1c[nH]c2ccccc12)C(=O)N[C@@H](CC(=O)O)C(=O)N[C@@H](Cc1cc(F)cc(F)c1)C(N)=O [HT-73, D-Trp-Met(O2)-Asp-Phe(3,5-DIF)-NH2], the EC50 [1, 4] was 8.82 µM, the EC50 [2, 6] was 12.6 µM and the “Agonistic Activity (%) at 10 μM” value [2] was 55.41%.
CSCC[C@H](NC(=O)[C@H](N)Cc1c[nH]c2ccccc12)C(=O)N[C@@H](CC(=O)O)C(=O)N[C@@H](Cc1ccc(Cl)cc1)C(N)=O [HT-35, D-Trp-Met-Asp-Phe(4-CII)-NH2] was tested, and the EC50 [1, 4] was 0.755 µM, the EC50 [2, 6] was 0.18 µM and the “Agonistic Activity (%) at 10 μM” value [2] was 109.16%.
In the case of CC(=O)N[C@H](Cc1c[nH]c2ccccc12)C(=O)N[C@@H](CCC(N)=O)C(=O)N[C@@H](CC(=O)O)C(=O)N[C@@H](Cc1cccc(Br)c1)C(N)=O [HT-185, Ac-D-Trp-Gln-Asp-Phe(3-Br)-NH2], the EC50 [1, 4] is reported as 12 µM and the EC50 [2, 6] is reported as 3.82 µM.
With CCCC[C@H](NC(=O)[C@@H](Cc1c[nH]c2ccc(O)cc12)NC(C)=O)C(=O)N[C@@H](CCC(=O)O)C(=O)N[C@@H](Cc1cccc(Br)c1)C(N)=O [HT-240, Ac-(5-HTP)-Nle-Glu-Phe(3-Br)-NH2] (Ac-[dTrp(5-OH)][Nle]E[Phe(3-Br)]-NH2) the EC50 [1, 5] was greater than 10 µM and the EC50 [2, 3] was 0.527 µM.
Work on CSCC[C@H](NC(=O)[C@H](Cc1ccc(OS(=O)(=O)O)cc1)NC(=O)[C@H](CC(=O)O)NC(C)=O)C(=O)NCC(N)=O [HT-208, Ac-Asp-Tyr(SO3H)-Met-Gly-NH2] (Ac-D[sY]MG-NH2) yielded an EC50 [1, 5] greater than 10 µM and an EC50 ([2]; Fluo-8 calcium flux, bound in μM) greater than 10 µM.
Compound CCCCCCC[C@H](NC(=O)[C@H](Cc1c[nH]c2ccccc12)NC(C)=O)C(=O)N[C@@H](CC(=O)O)C(=O)N[C@@H](Cc1cccc(Br)c1)C(N)=O [HT-260, Ac-D-Trp-Na-Asp-Phe(3-Br)-NH2] has an EC50 ([1]; in presence of 10 nM CCK8) of 2.74 µM and an EC50 [2, 3] of 0.16 µM.
